PubChem BioAssay AID2060605 (Molecular Pharmacology Branch, DTP, NCI, 2025)
pIC50: −log10 of the molar value.

System: 947758-054-R-J2-PDC spheroid growth, percent test/control
Experiment: Anticancer human tumor 947758-054-R-J2-PDC patient-derived colon adenocarcinoma cell line growth inhibition [CLK]
Conditions: spheroids with HUVEC and MSC; for pIC50: curve of first compound; for viability, T/C: stronger effect = lower value; active = viability on the fitted dose curve at most 10% of control; inactive = the rest
Summary of the method: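 Patient-derived tumor cells grown as complex spheroids with HUVEC endothelial cells and mesenchymal stem cells, treated with drug combinations. Concentrations descend in half-log steps from near clinical Cmax, or from 10 microM if Cmax unknown.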

[1] = second compound 0.0316 µM, first compound 0.0316 µM
[2] = second compound 0.0316 µM, first compound 0.1 µM
[3] = second compound 0.0316 µM, first compound 0.316 µM
[4] = second compound 0.0316 µM, first compound 1 µM
[5] = second compound 0.0316 µM, first compound 3.16 µM
[6] = second compound 0.0316 µM, first compound 10 µM
[7] = second compound 0.1 µM, first compound 0.0316 µM
[8] = second compound 0.1 µM, first compound 0.1 µM
[9] = second compound 0.1 µM, first compound 0.316 µM
[10] = second compound 0.1 µM, first compound 1 µM
[11] = second compound 0.1 µM, first compound 3.16 µM
[12] = second compound 0.1 µM, first compound 10 µM
[13] = second compound 0.316 µM, first compound 0.0316 µM
[14] = second compound 0.316 µM, first compound 0.1 µM
[15] = second compound 0.316 µM, first compound 0.316 µM
[16] = second compound 0.316 µM, first compound 1 µM
[17] = second compound 0.316 µM, first compound 3.16 µM
[18] = second compound 0.316 µM, first compound 10 µM
[19] = second compound 1 µM, first compound 0.0316 µM
[20] = second compound 1 µM, first compound 0.1 µM
[21] = second compound 1 µM, first compound 0.316 µM
[22] = second compound 1 µM, first compound 1 µM
[23] = second compound 1 µM, first compound 3.16 µM
[24] = second compound 1 µM, first compound 10 µM
[25] = second compound 3.16 µM, first compound 0.0316 µM
[26] = second compound 3.16 µM, first compound 0.1 µM
[27] = second compound 3.16 µM, first compound 0.316 µM
[28] = second compound 3.16 µM, first compound 1 µM
[29] = second compound 3.16 µM, first compound 3.16 µM
[30] = second compound 3.16 µM, first compound 10 µM
[31] = second compound 10 µM, first compound 0.0316 µM
[32] = second compound 10 µM, first compound 0.1 µM
[33] = second compound 10 µM, first compound 0.316 µM
[34] = second compound 10 µM, first compound 1 µM
[35] = second compound 10 µM, first compound 3.16 µM
[36] = second compound 10 µM, first compound 10 µM
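Note: spheroids exposed to compounds for one week before readout.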
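Throughout, for viability, T/C: 100% = DMSO vehicle control wells.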

C=CC(=O)N1CCN(c2nc(=O)n(-c3c(C)ccnc3C(C)C)c3nc(-c4c(O)cccc4F)c(F)cc23)C(C)C1 (stereo unspecified) + CNC(=O)c1ccc(Nc2nc(OC3CCCC3)c3c(-c4ccc5nc(C)oc5c4)c[nH]c3n2)c(OC)c1
< 5.00: pIC50 (second compound 0.0316 µM) | pIC50 (second compound 0.1 µM)
> 7.50: pIC50 (second compound 1 µM) | pIC50 (second compound 3.16 µM) | pIC50 (second compound 10 µM)
5.21: pIC50 (second compound 0.316 µM)
inactive: viability, T/C [1] 64.6% | viability, T/C [2] 69.5% | viability, T/C [3] 68.2% | viability, T/C [4] 70.9% | viability, T/C [5] 65.9% | viability, T/C [6] 51.8% | viability, T/C [7] 78.4% | viability, T/C [8] 72.3% | viability, T/C [9] 66.1% | viability, T/C [10] 75.5% | viability, T/C [11] 68% | viability, T/C [12] 51.3% | viability, T/C [13] 70.4% | viability, T/C [14] 68.8% | viability, T/C [15] 47.1% | viability, T/C [16] 80.7% | viability, T/C [17] 77.5% | viability, T/C [18] 36.7% | viability, T/C [19] 43.3% | viability, T/C [20] 45.8% | viability, T/C [21] 36.9% | viability, T/C [22] 54.5% | viability, T/C [23] 45% | viability, T/C [24] 20% | viability, T/C [25] 43.1% | viability, T/C [26] 38.1% | viability, T/C [27] 40.9% | viability, T/C [28] 40.9% | viability, T/C [29] 31.2% | viability, T/C [30] 16% | viability, T/C [31] 32.1% | viability, T/C [32] 28.1% | viability, T/C [33] 28.6% | viability, T/C [34] 25.7% | viability, T/C [35] 21.1% | viability, T/C [36] 15.1%

CCCS(=O)(=O)Nc1ccc(F)c(C(=O)c2c[nH]c3ncc(-c4ccc(Cl)cc4)cc23)c1F + CNC(=O)c1ccc(Nc2nc(OC3CCCC3)c3c(-c4ccc5nc(C)oc5c4)c[nH]c3n2)c(OC)c1
7.49: pIC50 (second compound 0.316 µM)
inactive: viability, T/C [1] 39.4% | viability, T/C [2] 44.1% | viability, T/C [3] 31.6% | viability, T/C [4] 53.5% | viability, T/C [5] 47.7% | viability, T/C [6] 31.5% | viability, T/C [7] 45.5% | viability, T/C [8] 37.9% | viability, T/C [9] 29% | viability, T/C [10] 28.2% | viability, T/C [11] 24.6% | viability, T/C [12] 17.2% | viability, T/C [13] 50.4% | viability, T/C [14] 33.6% | viability, T/C [15] 18.8% | viability, T/C [16] 22.5% | viability, T/C [17] 23.9% | viability, T/C [18] 11.2% | viability, T/C [19] 37.6% | viability, T/C [20] 25.5% | viability, T/C [21] 16.9% | viability, T/C [22] 13.6% | viability, T/C [25] 30.2% | viability, T/C [26] 20.7% | viability, T/C [27] 15.7% | viability, T/C [28] 13.1% | viability, T/C [31] 24.2% | viability, T/C [32] 20.9% | viability, T/C [33] 14.4% | viability, T/C [34] 13.6%
active: viability, T/C [23] 14.4% | viability, T/C [24] 4.09% | viability, T/C [29] 10% | viability, T/C [30] 4.82% | viability, T/C [35] 9.07% | viability, T/C [36] 4.26%
> 7.50: pIC50 (second compound 0.0316 µM) | pIC50 (second compound 0.1 µM) | pIC50 (second compound 1 µM) | pIC50 (second compound 3.16 µM) | pIC50 (second compound 10 µM)

COC1C=CCC(C)C(C)S(=O)(=O)NC(=O)c2ccc3c(c2)N(CC2CCC21)CC1(CCCc2cc(Cl)ccc21)CO3 (stereo unspecified) + CNC(=O)c1ccc(Nc2nc(OC3CCCC3)c3c(-c4ccc5nc(C)oc5c4)c[nH]c3n2)c(OC)c1
inactive: viability, T/C [1] 75.6% | viability, T/C [2] 83.8% | viability, T/C [3] 90.3% | viability, T/C [4] 116% | viability, T/C [5] 95.3% | viability, T/C [6] 37.3% | viability, T/C [7] 73.4% | viability, T/C [8] 71.2% | viability, T/C [9] 55.5% | viability, T/C [10] 65.1% | viability, T/C [11] 72.1% | viability, T/C [12] 28.5% | viability, T/C [13] 61.8% | viability, T/C [14] 53.6% | viability, T/C [15] 37.2% | viability, T/C [16] 44.1% | viability, T/C [17] 49.2% | viability, T/C [18] 16.7% | viability, T/C [19] 37.5% | viability, T/C [20] 36.1% | viability, T/C [21] 24.4% | viability, T/C [22] 29.5% | viability, T/C [23] 26.4% | viability, T/C [24] 12.4% | viability, T/C [25] 28.3% | viability, T/C [26] 24.4% | viability, T/C [27] 21.8% | viability, T/C [28] 18.2% | viability, T/C [29] 18.1% | viability, T/C [30] 15.3% | viability, T/C [31] 29.4% | viability, T/C [32] 23.3% | viability, T/C [33] 13.2% | viability, T/C [34] 15.4% | viability, T/C [35] 10.6% | viability, T/C [36] 13.5%
> 7.50: pIC50 (second compound 0.316 µM) | pIC50 (second compound 1 µM) | pIC50 (second compound 3.16 µM) | pIC50 (second compound 10 µM)
5.12: pIC50 (second compound 0.0316 µM)
5.28: pIC50 (second compound 0.1 µM)
